Measurements taken from patent US7491794B2, “Macrocyclic compounds as inhibitors of viral replication” (Intermune, Inc., priority 2003, dated 2009).

Molecular target: T1, NS3-NS4 protease (Hepatitis C virus genotype 1a, UniProt P27958)
T1 construct: Recombinant E. coli or Baculovirus full-length NS3 was diluted to 3.33 μM with assay buffer; made in house; host or cells: E. coli or baculovirus (BV) system
Test: NS3-NS4 protease assay / NS3 inhibition assay, Section D
Format: biochemical
Protocol: NS3-NS4 Protease Assay NS3 complex formation with NS4A-2.
Recombinant E. coli or Baculovirus full-length NS3 was diluted to 3.33 μM with assay buffer and transferred material to an eppendorf tube and place in water bath in 4° C. refrigerator. The appropriate amount of NS4A-2 to 8.3 mM in assay buffer was added to equal the volume of NS3 in step 2.1.1 (conversion factor −3.8 mg/272 μL assay buffer). The material was transferred to an eppendorf tube and place in water bath in 4° C. refrigerator.
After equilibration to 4° C., equal volumes of NS3 and NS4A-2 solutions were combined in an eppendorf tube, mix gently with a manual pipettor, and incubate mixture for 15 minutes in the 4° C. water bath. Final concentrations in the mixture are 1.67 μM NS3, 4.15 mM NS4A-2 (2485-fold molar excess NS4A-2).
After 15 minutes at 4° C., the NS3/NS4A-2 eppendorf tube was removed and placed in a room temperature water bath for 10 minutes. NS3/NS4A-2 was alliquoted at appropriate volumes and store at −80° C. (E. coli NS3 run at 2 nM in assay, aliquot at 25 μL. BV NS3 run at 3 nM in assay, aliquot at 30 μL).
Sample compounds were dissolved to 10 mM in DMSO then diluted to 2.5 mM (1:4) in DMSO.
The E. coli. NS3/NS4A-2 was diluted to 4 nM NS3 (1:417.5 of 1.67 μM stock−18 μL 1.67 μM stock+7497 μL assay buffer).
The BV NS3/NS4A-2 was diluted to 6 nM NS3 (1:278.3 of 1.67 μM stock−24 μL 1.67 μM stock+6655 μL assay buffer).
Using the manual multichannel pipettor, careful not to introduce bubbles into the plate, add 50 μL assay buffer to wells A01-H01 of a black Costar 96-well polypropylene storage plate.
Using the manual multichannel pipettor, careful not to introduce bubbles into the plate, add 50 μL of diluted NS3/NS4A-2 from step 2.2.6 to wells A02-H12 of plate in step 2.2.7.
Using the manual multichannel pipettor, careful not to introduce bubbles into the plate, transfer 25 μL of the wells in drug dilution plate in step 2.2.5 to corresponding wells in assay plate in step 2.2.8. Change tips on multichannel pipettor for each row of compounds transferred.
Using the manual multichannel pipettor, careful not to introduce bubbles into the plate, mix the wells from the assay plate in step 2.2.9 by aspirating and dispensing 35 μL of the 75 μL in each well five times. Change tips on multichannel pipettor for each row of wells mixed.
Cover plate with a polystyrene plate lid and pre-incubate the plate from step 2.2.10 containing NS3 protease and sample compounds 10 minutes at room temperature.
While plate from step 2.2.11 is pre-incubating, dilute RETS1 substrate in a 15 mL polypropylene centrifuge tube.
Dilute RETS1 substrate to 8 μM (1:80.75 of 646 μM stock−65 μL 646 μM stock+5184 μL assay buffer).
After the plate in step is done pre-incubating, and using the manual multichannel, add 25 μL of substrate to all wells on the plate. Quickly mix the plate as in step 2.2.10, mixing 65 μL of the 100 μL in the wells.
Read the plate in kinetic mode on the Molecular Devices SpectraMax Gemini XS plate reader. Reader settings: Read time: 30 minutes, Interval: 36 seconds, Reads: 51, Excitation k: 335 nm, Emission k: 495 nm, cutoff: 475 nm, Automix: off, Calibrate: once, PMT: high, Reads/well: 6, Vmax pts: 21 or 28/51 depending on length of linearity of reaction.
IC50s are determined using a four parameter curve fit equation, and converted to Ki's using the following Km's:
where Ki=IC50/(1+[S]/Km))

T1 sequence (P27958 1027-1657): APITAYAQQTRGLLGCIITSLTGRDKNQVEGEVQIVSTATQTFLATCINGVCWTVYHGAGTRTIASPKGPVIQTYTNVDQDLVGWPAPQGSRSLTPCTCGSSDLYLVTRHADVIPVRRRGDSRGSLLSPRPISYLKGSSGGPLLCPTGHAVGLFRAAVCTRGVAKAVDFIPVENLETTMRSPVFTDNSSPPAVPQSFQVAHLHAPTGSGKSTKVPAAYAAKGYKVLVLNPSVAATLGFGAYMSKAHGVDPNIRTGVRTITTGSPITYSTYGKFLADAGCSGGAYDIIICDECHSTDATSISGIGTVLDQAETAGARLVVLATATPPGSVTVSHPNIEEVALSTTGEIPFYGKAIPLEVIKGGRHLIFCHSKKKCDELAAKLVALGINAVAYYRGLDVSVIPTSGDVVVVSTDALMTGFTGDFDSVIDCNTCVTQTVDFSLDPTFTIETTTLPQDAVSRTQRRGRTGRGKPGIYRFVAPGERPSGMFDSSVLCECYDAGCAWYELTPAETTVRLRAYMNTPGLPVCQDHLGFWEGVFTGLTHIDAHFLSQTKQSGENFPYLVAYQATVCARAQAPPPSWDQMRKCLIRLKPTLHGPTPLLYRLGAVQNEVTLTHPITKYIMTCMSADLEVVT

SMILES | IC50 [nM]
CC(C)(C)NC(=O)N[C@H]1CCCCC/C=C\[C@@H]2C[C@@]2(C(=O)NS(=O)(=O)C2CC2)NC(=O)[C@@H]2C[C@@H](NC(=O)c3sc4cc(F)ccc4c3Cl)CN2C1=O [Example 55] | < 100
CC(C)(C)OC(=O)N[C@H]1CCCCC/C=C\[C@@H]2C[C@@]2(C(=O)NS(=O)(=O)C2CC2)NC(=O)[C@@H]2C[C@@H](NC(=O)c3ccc(-c4ccc(Cl)cc4)o3)CN2C1=O [Example 22] | < 100
CC(C)(C)OC(=O)N[C@H]1CCCCC/C=C\[C@@H]2C[C@@]2(C(=O)NS(=O)(=O)C2CC2)NC(=O)[C@@H]2C[C@@H](NC(=O)c3cc4cc(F)ccc4[nH]3)CN2C1=O [Example 34] | < 100
COc1ccc(C(=O)N[C@@H]2C[C@H]3C(=O)N[C@]4(C(=O)O)C[C@H]4/C=C\CCCCC[C@H](NC(=O)OC(C)(C)C)C(=O)N3C2)cc1C(F)(F)F [Example 69] | < 10000
CC(C)(C)OC(=O)N[C@H]1CCCCC/C=C\[C@@H]2C[C@@]2(C(=O)O)NC(=O)[C@@H]2C[C@@H](NC(=O)c3cc4ccccc4o3)CN2C1=O [Example 66] | < 1000
CC(C)(C)OC(=O)N[C@H]1CCCCC/C=C\[C@@H]2C[C@@]2(C(=O)NS(=O)(=O)C2CC2)NC(=O)[C@@H]2C[C@@H](NC(=O)c3sc4cccc(Cl)c4c3Cl)CN2C1=O [Example 45] | < 100
COc1ccc(C(=O)N[C@@H]2C[C@H]3C(=O)N[C@]4(C(=O)NS(=O)(=O)C5CC5)C[C@H]4/C=C\CCCCC[C@H](NC(=O)OC4CCCC4)C(=O)N3C2)cc1 [Example 56] | < 100
CC(C)(C)OC(=O)N[C@H]1CCCCC/C=C\[C@@H]2C[C@@]2(C(=O)NS(=O)(=O)C2CC2)NC(=O)[C@@H]2C[C@@H](NC(=O)c3sc4cc(F)ccc4c3Cl)CN2C1=O [Example 44] | < 100
CC(C)(C)OC(=O)N[C@H]1CCCCC/C=C\[C@@H]2C[C@@]2(C(=O)O)NC(=O)[C@@H]2C[C@@H](NC(=O)c3ccccc3)CN2C1=O [Example 60] | < 10000
CC(C)(C)OC(=O)N[C@H]1CCCCC/C=C\[C@@H]2C[C@@]2(C(=O)O)NC(=O)[C@@H]2C[C@@H](NC(=O)c3sc4cc(F)ccc4c3Cl)CN2C1=O [Example 65] | < 1000
COc1ccc2[nH]c(C(=O)N[C@@H]3C[C@H]4C(=O)N[C@]5(C(=O)NS(=O)(=O)C6CC6)C[C@H]5/C=C\CCCCC[C@H](NC(=O)OC(C)(C)C)C(=O)N4C3)cc2c1 [Example 33] | < 100
CC(C)(C)OC(=O)N[C@H]1CCCCC/C=C\[C@@H]2C[C@@]2(C(=O)NS(=O)(=O)C2CC2)NC(=O)[C@@H]2C[C@@H](NC(=O)c3cc4cc(OC(F)(F)F)ccc4[nH]3)CN2C1=O [Example 36] | < 100
CC(C)(C)OC(=O)N[C@H]1CCCCC/C=C\[C@@H]2C[C@@]2(C(=O)NS(=O)(=O)C2CC2)NC(=O)[C@@H]2C[C@@H](NC(=O)c3ccc(F)c(F)c3)CN2C1=O [Example 15] | < 100
CC(C)(C)NC(=O)N[C@H]1CCCCC/C=C\[C@@H]2C[C@@]2(C(=O)NS(=O)(=O)C2CC2)NC(=O)[C@@H]2C[C@@H](NC(=O)c3cc4ccccc4s3)CN2C1=O [Example 54] | < 100
CC(C)(C)OC(=O)N[C@H]1CCCCC/C=C\[C@@H]2C[C@@]2(C(=O)O)NC(=O)[C@@H]2C[C@@H](NC(=O)c3ccc4ccccc4c3)CN2C1=O [Example 62] | < 1000
CC(C)(C)OC(=O)N[C@H]1CCCCC/C=C\[C@@H]2C[C@@]2(C(=O)NS(=O)(=O)C2CC2)NC(=O)[C@@H]2C[C@@H](NC(=O)c3sc4ccccc4c3Cl)CN2C1=O [Example 1] | < 100
CC(C)Nc1nc(C(=O)N[C@@H]2C[C@H]3C(=O)N[C@]4(C(=O)NS(=O)(=O)C5CC5)C[C@H]4/C=C\CCCCC[C@H](NC(=O)OC(C)(C)C)C(=O)N3C2)cs1 [Example 12] | < 100
COc1ccc(C(=O)N[C@@H]2C[C@H]3C(=O)N[C@]4(C(=O)NS(=O)(=O)C5CC5)C[C@H]4/C=C\CCCCC[C@H](NC(=O)OC4CCCC4)C(=O)N3C2)cc1C(F)(F)F [Example 57] | < 100
CC(C)(C)OC(=O)N[C@H]1CCCCC/C=C\[C@@H]2C[C@@]2(C(=O)O)NC(=O)[C@@H]2C[C@@H](NC(=O)c3sc4ccccc4c3Cl)CN2C1=O [Example 64] | < 1000
CC(C)(C)OC(=O)N[C@H]1CCCCC/C=C\[C@@H]2C[C@@]2(C(=O)NS(=O)(=O)C2CC2)NC(=O)[C@@H]2C[C@@H](NC(=O)c3csc(-c4ccc(Cl)cc4)c3)CN2C1=O [Example 23] | < 100
CC(C)(C)OC(=O)N[C@H]1CCCCC/C=C\[C@@H]2C[C@@]2(C(=O)O)NC(=O)[C@@H]2C[C@@H](NC(=O)c3ccc4cccnc4c3)CN2C1=O [Example 67] | < 10000
CC(C)(C)OC(=O)N[C@H]1CCCCC/C=C\[C@@H]2C[C@@]2(C(=O)NS(=O)(=O)C2CC2)NC(=O)[C@@H]2C[C@@H](NC(=O)c3cc4cc(Cl)ccc4[nH]3)CN2C1=O [Example 32] | < 100

Results, then the compound that gave them:

IC50 [nM] | SMILES
< 100 | CC(C)(C)OC(=O)N[C@H]1CCCCC/C=C\[C@@H]2C[C@@]2(C(=O)NS(=O)(=O)C2CC2)NC(=O)[C@@H]2C[C@@H](NC(=O)c3csc(-c4ccccc4)n3)CN2C1=O [Example 24]
< 100 | CC(C)(C)OC(=O)N[C@H]1CCCCC/C=C\[C@@H]2C[C@@]2(C(=O)NS(=O)(=O)C2CC2)NC(=O)[C@@H]2C[C@@H](NC(=O)c3cc4ccccc4[nH]3)CN2C1=O [Example 31]
< 100 | CC(C)(C)OC(=O)N[C@H]1CCCCC/C=C\[C@@H]2C[C@@]2(C(=O)NS(=O)(=O)C2CC2)NC(=O)[C@@H]2C[C@@H](NC(=O)c3ccc4cc[nH]c4c3)CN2C1=O [Example 38]
< 100 | CC(C)(C)OC(=O)N[C@H]1CCCCC/C=C\[C@@H]2C[C@@]2(C(=O)NS(=O)(=O)C2CC2)NC(=O)[C@@H]2C[C@@H](NC(=O)c3ccc(Cl)cc3)CN2C1=O [Example 4]
< 100 | CC(C)(C)OC(=O)N[C@H]1CCCCC/C=C\[C@@H]2C[C@@]2(C(=O)NS(=O)(=O)C2CC2)NC(=O)[C@@H]2C[C@@H](NC(=O)c3ccc4ncccc4c3)CN2C1=O [Example 28]
< 100 | CC(C)(C)OC(=O)N[C@H]1CCCCC/C=C\[C@@H]2C[C@@]2(C(=O)NS(=O)(=O)C2CC2)NC(=O)[C@@H]2C[C@@H](NC(=O)c3cc4ccccc4o3)CN2C1=O [Example 39]
< 100 | Cn1c(C(=O)N[C@@H]2C[C@H]3C(=O)N[C@]4(C(=O)NS(=O)(=O)C5CC5)C[C@H]4/C=C\CCCCC[C@H](NC(=O)OC(C)(C)C)C(=O)N3C2)cc2ccccc21 [Example 35]
< 100 | CC(C)(C)OC(=O)N[C@H]1CCCCC/C=C\[C@@H]2C[C@@]2(C(=O)NS(=O)(=O)C2CC2)NC(=O)[C@@H]2C[C@@H](NC(=O)c3cnc4ccccc4n3)CN2C1=O [Example 30]
< 100 | CC(C)(C)OC(=O)N[C@H]1CCCCC/C=C\[C@@H]2C[C@@]2(C(=O)NS(=O)(=O)C2CC2)NC(=O)[C@@H]2C[C@@H](NC(=O)c3ccccc3)CN2C1=O [Example 2]
< 100 | CC(C)(C)OC(=O)N[C@H]1CCCCC/C=C\[C@@H]2C[C@@]2(C(=O)NS(=O)(=O)C2CC2)NC(=O)[C@@H]2C[C@@H](NC(=O)c3ccc(C(N)=O)cc3)CN2C1=O [Example 18]
